One assay concerns Ba/F3 cells expressing HER2 YVMA Exon 20ins. Description: Ba/F3 proliferation suppression activity, cells expressing HER2 YVMA Exon 20ins. The format is cell-based. To be noted: Mus musculus, BaF3, 72 hours, CellTiter-Glo. On the procedure: (§1) For the Ba/F3 cells, a RPMI-1640 medium containing 10% FBS and 5 ng/ml IL-3 (R&D Systems) was used. The transduced Ba/F3 cells were cultured in a medium, which is same as the above medium, but 1 ug/ml puromycin (Invitrogen) was additionally added to.
(§2) 24 hours before the treatment of the cells with the compounds, 3000 to 5000 cells were distributed into each well of a white clear bottom 96 well plate (Corning). The compounds were diluted in a dimethyl sulfoxide (e.g. dilution ratio of 3:1 and total 12 concentrations) and then injected by 0.5 ul respectively, such that a final concentration amounted to 0.3 nM to 50 uM. 72 hours after the treatment with the compounds, the measurement of live cells was made in such way that these cells were stored for 10 minutes at a room temperature using a CellTiter-Glo luminescent cell-viability reagent (Promega) and then their luminescence intensities were measured using a reader (i.e. Synergy Neo, Biotek). Each test was repeated three times.
(§3) resulting values were calculated as a cell growth ratio (%) compared to a control. Then, the graphs were drawn and the […] values were calculated by using a program, GraphPad Prism version 5.0.
Background: ATP-based viability assays read luminescence as a measure of living cells.
In the case of `C=CC(=O)Nc1cc(Nc2cc(N3OCC[C@@H]3c3cc(F)cc(C(F)(F)F)c3)ncn2)c(OC)cc1N1CCC(N2CCN(C3CC3)CC2)CC1` [Compound 1], the GI50 lay within 50 to 500 nM. On the same count and under the same terms, the same measure for `C=CC(=O)Nc1cc(Nc2cc(N3OCC[C@@H]3c3ccc(F)c(C(F)(F)F)c3)ncn2)c(OC)cc1N1CCN(C)CC1` [Compound 37]: less than 50 nM; for `C=CC(=O)Nc1cc(Nc2cc(N3OCC[C@@H]3c3ccc(F)c(C(F)(F)F)c3)ncn2)c(OC)cc1N1CCC(N2CCN(C3CC3)[C@H](C)C2)CC1` [Compound 53]: less than 50 nM.

The next assay concerns Ba/F3 cells expressing EGFR Exon20 ins NPH. Put plainly: Ba/F3 proliferation suppression activity, cells expressing EGFR Exon20 ins NPH. To be noted: Mus musculus, BaF3, 72 hours, CellTiter-Glo. Type of assay: cell-based. On the procedure:
A following experiment was carried out to evaluate the suppression activity of the compounds according to the present invention against the proliferation of Ba/F3 which expresses EGFR mutations.
as §1, §2, §3
`C=CC(=O)Nc1cc(Nc2cc(N3OCC[C@@H]3c3cc(F)cc(C(F)(F)F)c3)ncn2)c(OC)cc1N1CCC(N2CCN(C3CC3)CC2)CC1` [Compound 1]: the GI50 is less than 50 nM. On the same count and under the same terms, the same measure for `C=CC(=O)Nc1cc(Nc2cc(N3OCC[C@@H]3c3ccc(F)c(C(F)(F)F)c3)ncn2)c(OC)cc1N1CCN(C)CC1` [Compound 37]: less than 50 nM. Turning to `C=CC(=O)Nc1cc(Nc2cc(N3OCC[C@@H]3c3ccc(F)c(C(F)(F)F)c3)ncn2)c(OC)cc1N1CCC(N2CCN(C3CC3)[C@H](C)C2)CC1` [Compound 53], the GI50 is less than 50 nM. As for `C=CC(=O)Nc1cc(Nc2cc(N3OCC[C@@H]3c3ccc(F)c(C(F)(F)F)c3)ncn2)c(OC)cc1N1CCC(N2CCO[C@H](C)C2)CC1` [Compound 59], the GI50 is less than 50 nM.

Consider `C=CC(=O)Nc1cc(Nc2cc(N3OCC[C@@H]3c3ccc(F)c(C(F)(F)F)c3)ncn2)c(OC)cc1N1CCOCC1` [Compound 63], for which the GI50 is 50 to 500 nM. In the case of `C=CC(=O)Nc1cc(Nc2cc(N3OCC[C@@H]3c3ccc(F)c(C(F)(F)F)c3)ncn2)c(OC)cc1N1CCC(N2CCOCC2)CC1` [Compound 64], the GI50 is less than 50 nM. As for `C=CC(=O)Nc1cc(Nc2cc(N3OCC[C@@H]3c3cccc(C(F)(F)F)c3F)ncn2)c(OC)cc1N1CCOCC1` [Compound 65], the GI50 lay within 50 to 500 nM. Consider `C=CC(=O)Nc1cc(Nc2cc(N3OCC[C@@H]3c3cccc(C(F)(F)F)c3F)ncn2)c(OC)cc1N1CCC(N2CCOCC2)CC1` [Compound 66], for which the GI50 is less than 50 nM. For the compound `C=CC(=O)Nc1cc(Nc2cc(N3OCC[C@@H]3c3cccc(C(F)(F)F)c3F)ncn2)c(OC)cc1N1CCC(N2CCN(C3CC3)[C@@H](C)C2)CC1` [Compound 67], the concentration for 50% growth inhibition (GI50) lay in the range of 50 to 500 nM.

Turning to `C=CC(=O)Nc1cc(Nc2cc(N3OCC[C@@H]3c3cccc(C(F)(F)F)c3F)ncn2)c(OC)cc1N1CCC(N2CCN(C3CC3)[C@H](C)C2)CC1` [Compound 68], the GI50 fell in the range of 50 to 500 nM.

For the compound `C=CC(=O)Nc1cc(Nc2cc(N3OCC[C@@H]3c3cccc(C(F)(F)F)c3F)ncn2)c(OC)cc1N1CCN(C2COC2)CC1` [Compound 69], the GI50 was less than 50 nM. The same measure, in the same setting: the same measure for `C=CC(=O)Nc1cc(Nc2cc(N3OCC[C@@H]3c3cccc(C(F)(F)F)c3F)ncn2)c(OC)cc1OCCN(C)C` [Compound 70]: less than 50 nM; for `C=CC(=O)Nc1cc(Nc2cc(N3OCC[C@@H]3c3cccc(C(F)(F)F)c3F)ncn2)c(OC)cc1N1CCC(N2CCC2)CC1` [Compound 71]: less than 50 nM.

As to `C=CC(=O)Nc1cc(Nc2cc(N3OCC[C@@H]3c3cccc(C(F)(F)F)c3F)ncn2)c(OC)cc1N1CCC[C@@H]1CN1CCC1` [Compound 72], the GI50 fell in the range of 50 to 500 nM.

Consider `C=CC(=O)Nc1cc(Nc2cc(N3OCC[C@@H]3c3cccc(C(F)(F)F)c3F)ncn2)c(OC)cc1N1CCC(N2C[C@@H](C)O[C@@H](C)C2)CC1` [Compound 73], for which the GI50 is less than 50 nM. For the compound `C=CC(=O)Nc1cc(Nc2cc(N3OCC[C@@H]3c3cccc(C(F)(F)F)c3F)ncn2)c(OC)cc1N1CCC(N2CCN(C)C(=O)C2)CC1` [Compound 74], the GI50 fell in the range of 50 to 500 nM. On to `C=CC(=O)Nc1cc(Nc2cc(N3OCC[C@@H]3c3cccc(C(F)(F)F)c3F)ncn2)c(OC)cc1N1CCO[C@@H](C)C1` [Compound 75], for which the GI50 was in the range of 50 to 500 nM. Regarding `C=CC(=O)Nc1cc(Nc2cc(N3OCC[C@@H]3c3cccc(C(F)(F)F)c3F)ncn2)c(OC)cc1N1CCN(C)[C@@H](C)C1` [Compound 76], the GI50 is less than 50 nM. Turning to `C=CC(=O)Nc1cc(Nc2cc(N3OCC[C@@H]3c3cccc(C(F)(F)F)c3F)ncn2)c(OC)cc1N1CCC(N2CCCN(C3CC3)CC2)CC1` [Compound 77], the GI50 fell in the range of 50 to 500 nM. On to `C=CC(=O)Nc1cc(Nc2cc(N3OCC[C@@H]3c3cccc(C(F)(F)F)c3F)ncn2)c(OC)cc1N1CCC(N2CCN(C(C)C)CC2)CC1` [Compound 78], for which the GI50 is less than 50 nM. As for `C=CC(=O)Nc1cc(Nc2cc(N3OCC[C@@H]3c3cccc(C(F)(F)F)c3F)ncn2)c(OC)cc1N1CCO[C@H](C)C1` [Compound 79], the GI50 lay in the range of 50 to 500 nM. On the same count and under the same terms, the same measure for `C=CC(=O)Nc1cc(Nc2cc(N3OCC[C@@H]3c3cccc(C(F)(F)F)c3F)ncn2)c(OC)cc1N1CCN(C)[C@H](C)C1` [Compound 80]: less than 50 nM; for `C=CC(=O)Nc1cc(Nc2cc(N3OCC[C@@H]3c3cccc(C(F)(F)F)c3F)ncn2)c(OC)cc1N1CCN(C2CC2)CC1` [Compound 81]: 50 to 500 nM. Still for that read-out and setting: for `C=CC(=O)Nc1cc(Nc2cc(N3OCC[C@@H]3c3cccc(C(F)(F)F)c3F)ncn2)c(OC)cc1N1CCC(N(C)C)CC1` [Compound 82] the value was less than 50 nM; for `C=CC(=O)Nc1cc(Nc2cc(N3OCC[C@@H]3c3cccc(C(F)(F)F)c3F)ncn2)c(OC)cc1N1CCC(N2CCN(C3CC3)C(C)(C)C2)CC1` [Compound 83], 50 to 500 nM; for `C=CC(=O)Nc1cc(Nc2cc(N3OCC[C@@H]3c3cccc(C(F)(F)F)c3F)ncn2)c(OC)cc1N1CCC(N2CCN(C3COC3)CC2)CC1` [Compound 84], less than 50 nM. On the same count and under the same terms, the same measure for `C=CC(=O)Nc1cc(Nc2cc(N3OCC[C@@H]3c3cccc(C(F)(F)F)c3F)ncn2)c(OC)cc1N1CCN(C)C(=O)C1` [Compound 85]: 50 to 500 nM; for `C=CC(=O)Nc1cc(Nc2cc(N3OCC[C@@H]3c3cccc(C(F)(F)F)c3F)ncn2)c(OC)cc1N1C[C@H]2C[C@@H]1CO2` [Compound 86]: 50 to 500 nM; for `C=CC(=O)Nc1cc(Nc2cc(N3OCC[C@@H]3c3cccc(C(F)(F)F)c3F)ncn2)c(OC)cc1N(C)CCNC` [Compound 87]: less than 50 nM. For `C=CC(=O)Nc1cc(Nc2cc(N3OCC[C@@H]3c3cccc(C(F)(F)F)c3F)ncn2)c(OC)cc1N1CC[C@@H](N(C)C)C1` [Compound 88], the GI50 lay in the range of 50 to 500 nM. As for `C=CC(=O)Nc1cc(Nc2cc(N3OCC[C@@H]3c3cccc(C(F)(F)F)c3F)ncn2)c(OC)cc1N1CCC(N2C[C@H]3C[C@@H]2CO3)CC1` [Compound 89], the GI50 is less than 50 nM. Take `C=CC(=O)Nc1cc(Nc2cc(N3OCC[C@@H]3c3cccc(C(F)(F)F)c3F)ncn2)c(OC)cc1N1CCC(N2CCN(C)CC2)CC1` [Compound 90]: the GI50 was less than 50 nM. Same read-out and setting: the same measure for `C=CC(=O)Nc1cc(Nc2cc(N3OCC[C@@H]3c3cccc(C(F)(F)F)c3F)ncn2)c(OC)cc1N1CCC(N2CCN(C(C)=O)CC2)CC1` [Compound 91]: 50 to 500 nM; for `C=CC(=O)Nc1cc(Nc2cc(N3OCC[C@@H]3c3cccc(C(F)(F)F)c3F)ncn2)c(OC)cc1N1C[C@@H]2C[C@H]1CO2` [Compound 92]: 50 to 500 nM; for `C=CC(=O)Nc1cc(Nc2cc(N3OCC[C@@H]3c3cccc(C(F)(F)F)c3F)ncn2)c(OC)cc1N1CCN(CCC)CC1` [Compound 93]: less than 50 nM. Still for that read-out and setting: for `C=CCN1CCN(c2cc(OC)c(Nc3cc(N4OCC[C@@H]4c4cccc(C(F)(F)F)c4F)ncn3)cc2NC(=O)C=C)CC1` [Compound 94] the value was less than 50 nM. For `C=CC(=O)Nc1cc(Nc2cc(N3OCC[C@@H]3c3cccc(C(F)(F)F)c3F)ncn2)c(OC)cc1N1CC[C@@H](CN(C)C)C1` [Compound 95], the GI50 was less than 50 nM. On to `C=CC(=O)Nc1cc(Nc2cc(N3OCC[C@@H]3c3cccc(C(F)(F)F)c3F)ncn2)c(OC)cc1N1CCC(N2C[C@@H]3C[C@H]2CO3)CC1` [Compound 96], for which the GI50 is less than 50 nM. For `C=CC(=O)Nc1cc(Nc2cc(N3OCC[C@@H]3c3cccc(C(F)(F)F)c3F)ncn2)c(OC)cc1N1CCC(N2CCNCC2)CC1` [Compound 97], the GI50 was less than 50 nM.

On to `C=CC(=O)Nc1cc(Nc2cc(N3OCC[C@@H]3c3cc(F)cc(F)c3)ccn2)c(OC)cc1N1CCC(N2CCN(C3CC3)CC2)CC1` [Compound 98], for which the GI50 was in the range of 50 to 500 nM. With `C=CC(=O)Nc1cc(Nc2cc(N3OCC[C@@H]3c3cc(F)cc(F)c3)ccn2)c(OC)cc1N(C)CCN(C)C` [Compound 99], the GI50 lay within 50 to 500 nM. Turning to `C=CC(=O)Nc1cc(Nc2cc(N3OCC[C@@H]3c3cc(F)cc(F)c3)ccn2)c(OC)cc1N1CCN(C)CC1` [Compound 100], the GI50 was in the range of 500 to 5000 nM.

Take `C=CC(=O)Nc1cc(Nc2cc(N3OCC[C@@H]3c3cc(F)cc(F)c3)ncn2)c(OC)cc1SCCN(C)C` [Compound 101]: the GI50 is less than 50 nM.

As to `C=CC(=O)Nc1cc(Nc2cc(N3OCC[C@@H]3c3cc(F)cc(F)c3)ncn2)c(OC)cc1N1CCSCC1` [Compound 107], the GI50 was in the range of 50 to 500 nM. `C=CC(=O)Nc1cc(Nc2nccc(N3OCC[C@@H]3c3ccccc3)n2)c(OC)cc1N(C)CCN(C)C` [Compound 108]: the GI50 was in the range of 50 to 500 nM. With `C=CC(=O)Nc1cc(Nc2cc(N3OCCC3c3cccc4c3cnn4C)ncn2)c(OC)cc1N1CCN(C)CC1` (stereo not shown) [Compound 125], the GI50 lay in the range of 50 to 500 nM.

For the compound `C=CC(=O)Nc1cc(Nc2cc(N3OCCC3c3cccc4c3cnn4C)ncn2)c(OC)cc1N1CCC(N2CCN(C3CC3)CC2)CC1` (stereo not shown) [Compound 126], the GI50 is less than 50 nM.

Take `C=CC(=O)Nc1cc(Nc2cc(N3OCC[C@@H]3c3cc(F)cc(F)c3)ncn2)c(OCC(F)(F)F)nc1N1CCN(C)CC1` [Compound 128]: the concentration for 50% growth inhibition (GI50) lay within 50 to 500 nM. As for `C=CC(=O)Nc1cc(Nc2ncc(C(=O)OC(C)C)c(-c3cn(C)c4ccccc34)n2)c(OC)cc1N(C)CCN(C)C` [TAK788, reference compound], the GI50 was less than 50 nM.

Broadly, the GI50 is the concentration giving 50% growth inhibition.

For the origin of these results see patent US20230322753A1, “HETEROARYL DERIVATIVE, METHOD FOR PREPARATION THEREOF, AND PHARMACEUTICAL COMPOSITION COMPRISING SAME AS ACTIVE INGREDIENT” (VORONOI INC., priority 2020, published 2023).
